Tests used:
Assay type in all cases: binding
Muscarine receptor 1 = target: T1, Muscarine receptor 1 (Rattus norvegicus, UniProt P08482); assay: Bonding with cerebral receptors: muscarine receptor 1 (3H pirenzepine, rat cortex); settings: 0.25 nM 3H pirenzepine, 60 min, 25° C., pH 7.4; read-out: Affinity for muscarine receptor M1 (/3H/Pirenzepine), IC50
T1 construct: prepared from cortex removed from the brains of a male rat; from tissue; host or cells: rat cerebral cortex homogenate (male rat, Iffa Credo)
T1 sequence (P08482 whole entry): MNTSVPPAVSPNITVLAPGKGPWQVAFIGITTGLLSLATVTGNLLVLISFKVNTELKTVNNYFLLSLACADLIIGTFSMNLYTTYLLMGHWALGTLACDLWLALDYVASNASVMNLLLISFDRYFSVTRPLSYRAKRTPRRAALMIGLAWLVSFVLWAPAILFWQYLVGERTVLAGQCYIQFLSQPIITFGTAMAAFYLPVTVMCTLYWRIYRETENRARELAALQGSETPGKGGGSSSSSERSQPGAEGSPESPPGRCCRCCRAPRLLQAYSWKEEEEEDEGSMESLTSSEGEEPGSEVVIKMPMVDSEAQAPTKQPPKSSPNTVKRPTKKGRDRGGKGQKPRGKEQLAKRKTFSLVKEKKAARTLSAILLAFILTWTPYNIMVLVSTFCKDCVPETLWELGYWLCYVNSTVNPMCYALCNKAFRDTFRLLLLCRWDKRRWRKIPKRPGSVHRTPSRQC
Protocol: This is prepared from cortex removed from the brains of a male rat weighing 150 to 200 g, (Iffa Credo) pulverized with Polytron in a buffer Na/K 10 mM pH 7.4. After incubation (aliquots of 0.5 ml of homogenate) for 60 minutes at 25° C. in the presence of 0.25 nM of ^3 H pirenzepine, either alone, or with the product under test, or with an excess of pirenzepine at 10^-5 M (in order to determine the non-specific radioactivity fixed), the incubates are cooled and filtered.
The filtration is carried out on Whatman GF/C filters prewashed in a solution of polyethylene-imine at 0.05%. The filters are rinsed with 3×5 ml of phosphate Na/K buffer 10 mM pH 7.4, then measurements are made by liquid scintillation.

GABA receptor = assay: Affinity for other receptors: GABA; settings: negligible affinity
Muscarine receptor 2 = assay: Bonding with cerebral receptors: muscarine receptor 2 (3H quinuclidinyl benzylate, rat brain); settings: 0.3 nM 3H quinuclidinyl benzylate, 60 min, 25° C., pH 7.5; read-out: Affinity for muscarine receptor M2 (/3H/Quinuclidinyl benzylate), IC50
Protocol: The preparation is made from the brains of a male rat weighing 150 to 200 g (Iffa Credo).
The brains are pulverized (Teflon-glass) in a 0.32M solution of sucrose. The homogenate is centrifuged for 10 minutes at 1000 g (0°-4° C.).
The supernatant obtained is recovered and centrifuged at 30,000 g for 15 minutes (0°-4° C.).
The deposit is put in suspension in a buffer Tris 50 mM pH 7.5 and the new homogenate is centrifuged again at 30,000 g for 15 minutes (0°-4° C.).
The deposits after elimination of the supernatant, can be used straight-away or kept for up to one month at -30° C.
For one experiment the deposits are first of all thawed out, if necessary, to ambient temperature and put in suspension, using a Dounce, in a buffer Tris 50 mM pH 7.5. Aliquots of 2 ml are incubated for 60 minutes at 25° C. in the presence of 0.3 nM of ^3 H quinuclidinyl benzylate either alone, or with the product under test, or with benzatropine at 10^-5 M in order to determine the non-specific radioactivity fixed.
At the end of the incubation the incubate tubes are cooled to 4° C. and filtered rapidly on Whatman GF/C filters. The filters are rinsed with 3×5 ml of buffer Tris 50 mM pH 7.5, then measurements are made by liquid scintillation [Henry I Yamamura, Solomon H. Snyder, Proc. Nat. Acad. Sc. (1974) 71 No. 5, 1725-1729).

dopamine receptor = assay: Affinity for other receptors: dopamine; settings: negligible affinity
opiated receptor kappa = opiated receptor kappa (Homo sapiens, UniProt P41145); assay: Affinity for other receptors: opiated receptor kappa; settings: negligible affinity
Chain of opiated receptor kappa (P41145 whole entry): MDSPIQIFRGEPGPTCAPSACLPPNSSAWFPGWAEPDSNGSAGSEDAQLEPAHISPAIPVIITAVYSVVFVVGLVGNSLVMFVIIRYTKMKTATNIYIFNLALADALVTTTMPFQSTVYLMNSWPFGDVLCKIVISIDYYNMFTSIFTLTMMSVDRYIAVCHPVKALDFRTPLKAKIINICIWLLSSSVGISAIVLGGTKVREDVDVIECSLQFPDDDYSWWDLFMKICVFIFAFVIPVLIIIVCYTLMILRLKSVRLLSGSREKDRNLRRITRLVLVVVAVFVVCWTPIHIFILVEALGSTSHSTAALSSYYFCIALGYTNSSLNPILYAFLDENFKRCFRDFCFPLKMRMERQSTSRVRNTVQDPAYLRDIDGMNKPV

adrenoreceptor alpha 1 = assay: Affinity for other receptors: adrenoreceptor alpha 1; settings: negligible affinity

SMILES	IC50 (Muscarine receptor 1) [nM]	IC50 (GABA receptor) [µM]	IC50 (Muscarine receptor 2) [nM]	IC50 (dopamine receptor) [µM]	IC50 (opiated receptor kappa) [µM]	IC50 (adrenoreceptor alpha 1) [µM]
CC(C)(C)c1ccc(S(=O)(=O)N2CCCC2=O)cc1 [Example 1, 1-(4-tert-butylbenzenesulphonyl)-2-pyrrolidinone]	130	5 to 10	1300	5 to 10	5 to 10	5 to 10
CCN(CC)c1ccc(S(=O)(=O)N2CCCC2=O)cc1 [Example 2, 1-[4-(diethylamino)benzenesulphonyl]-2-pyrrolidinone]	98	5 to 10	1300	5 to 10	5 to 10	5 to 10
